In patent publication US10980739B2, “Treatment of a disease of the gastrointestinal tract with a chemokine/chemokine receptor inhibitor” (Progenity, Inc., priority 2016, dated 2021):

Test: Tacrolimus tissue pharmacokinetics, oral versus intra-cecal ingestible device delivery
Assay type: in vivo, Yorkshire-Cross farm swine
Conditions: swine, intra-cecal ingestible device vs oral, 12 hours post-dose; FIG. 76
Procedure: No further randomization procedure was employed.
Animals in Group 1 received an ingestible device containing 0.8 mL of vehicle solution (80% alcohol, 20% HCO-60). Animals in Group 2 received orally […] liquid formulation of tacrolimus at 4 mg/0.8 mL per animal (Prograf: 5 mg/mL). Animals in Group 3 received intra-cecally an ingestible device containing tacrolimus at 1 mg in 0.8 mL per ingestible device. Animals in Group 4 received intra-cecally an ingestible device containing tacrolimus at 2 mg in 0.8 mL per ingestible device. Animals in Group 5 received intra-cecally an ingestible device containing tacrolimus at 4 mg in 0.8 mL per ingestible device. […]
Approximately 200˜400 mg of rectal content were collected, if available, with a fecal swab (Copan Diagnostics Nylon Flocked Dry Swabs, 502CS01). The fecal swab was pre-weighed and weighed after collection in the collection tube (Sterile Tube and Cap No Media, PFPM913S), and the sample weight was recorded. […]
For tissue necropsy, small intestine fluid and cecal fluid were collected separately from all the animals into two separate square plastic bottles, and stored at −20° C. The length and diameter of the cecum and the colon was measured from one animal in each group and recorded for reference. […] All samples were weighed, and the tissue sample weights were recorded. […]

Structure (SMILES): C=CC[C@@H]1/C=C(\C)C[C@H](C)C[C@H](OC)[C@H]2O[C@@](O)(C(=O)C(=O)N3CCCC[C@H]3C(=O)O[C@H](/C(C)=C/[C@@H]3CC[C@@H](O)[C@H](OC)C3)[C@H](C)[C@@H](O)CC1=O)[C@H](C)C[C@@H]2OC [tacrolimus]
- mean concentration of tacrolimus in the cecum tissue and the proximate colon tissue: higher
